Experimental data reported in US5352800A, “Process for the production of a novel endothelin antagonist” (Merck & Co., Inc., priority 1993, dated 1994).

Experiment: Stability of the product during purification (sensitivity to methanol)
Assay type: physicochemical
Conditions: particularly at a pH below 6

CC=C(C)C=C(C)C1C(C)=CC2(C)CC(C)CCC2C1C(=O)C1=CC(O)(Cc2ccccc2)C(=O)N1 (stereo not shown) [Structural Formula I]
instability of the product / sensitivity to methanol: sensitivity to methanol particularly at a pH below 6
